Laboratory results from patent EP0316212B1 (priority 1987, dated 1989).
Like-named read-outs stand apart in the source and are kept apart here.

Assays:
[1] = test system: EMCV (Encephalomyocarditis Virus); assay: microbe, parasite or virus in culture; type: cell-based
[2] = test system: virus de la chorioméningite lymphocytaire (CML); assay: organism not typed; type: cell-based; conditions: for % Inhibition: ajoutés après l'infection virale
[3] = test system: VSV (Vesicular Stomatitis Virus); assay: microbe, parasite or virus in culture; type: cell-based
[4] = test system: IHDT-6 (International Health Division-Tumor-6); type: cell-based
[5] = test system: HVE (Herpes Virus Eidolon); assay: Plaque method, neutralisation of HVE by coupled NP (TCC31 cells); type: cell-based
Description: L'effet des NP couplés (TNP-BSA, DNP-Glycine) a été évalué par la méthode des plages, comme pour le virus de la chorioméningite lymphocytaire dans l'exemple I. L'effet neutralisant des NP couplés a été évalué sur les virus enveloppés ou non enveloppés suivants :
C'est un virus de l'herpès à double brin d'ADN que l'on cultive sur des cellules TCC31 de souris. Les résultats sont observés après 2 Jours de culture.
Pour tous les virus testés, les dilutions des virus donnaient 50 plages/cupule.

HIV1 = HIV1 infection of human lymphocytes preincubated with antibodies or NP derivatives, reverse transcriptase in supernatants; type: cell-based; conditions: for activité reverse transcriptase (surnageants de culture): dérivés NP, concentration not given
Protocol: (§1) La technique de culture et de titrage de la reverse-transcriptase du HIV est rappelée ci-après : Des lymphocytes humains, préalablement activés par la PHA (phytohémagglutinine) sont incubés dans un milieu nutritif (RPMI 1640 + sérum de veau foetal + antibiotiques + β-mercaptoéthanol 10⁻⁵M + 2»g/ml polybrene + sérum anti-interféron 1/2000 + IL2 10%). Après centrifugation, le culot cellulaire est mis en présence du HIV1 (10.000 cpm/10⁶ cellules) pendant 1 heure à 37°. Après lavage et centrifugation, les cellules sont resuspendues dans du milieu nutritif. Les surnageants de culture cellulaire sont suivis pendant plusieurs jours pour leur activité reverse transcriptase. Ils sont centrifugés 7 minutes à 95000 tours et le culot est lysé par du Triton® 0,1% (produit Touzart et Matignon). Un mélange réactionnel est ajouté (Tris, DTT (dithiothreitol), MgCl₂, KCl, PolyA, Oligo dT, ³HTTP, H₂O) et après 1 heure d'incubation à 37°C, la réaction est arrêtée avec du pyrophosphate de sodium et de l'acide nucléique de levure est ajouté pour aider la précipitation. De l'acide trichloracétique (TCA) est ajouté et la solution est laissée 15 minutes à 4°C. Après filtration sous vide avec des filtres millipores 0.45 »m et plusieurs lavages avec du TCA (0.5%), on procède au rinçage à l'éthanol, au sèchage en étuve 37° et enfin au comptage.
Les lymphocytes humains, préalablement activés par la PHA, sont incubés en présence des AcN, des anticorps anti-NP et des dérivés NP (DNP-glycine, DNP-lysine) pendant une nuit à 37°C. Le lendemain, le culot cellulaire est mis en présence du HIV1 pendant 1 heure à 37°C au bain-marie et les cellules sont resuspendues dans du milieu nutritif en présence des produits à tester. Les surnageants de culture sont testés pour l'activité reverse transcriptase pendant 3 semaines.

[6] = molecular target: reverse transcriptase du HIV1 (Human immunodeficiency virus type 1 group M subtype B, UniProt P04585); assay: Reverse transcriptase activity of HIV1 incubated with NP derivatives, tested immediately; type: biochemical; conditions: témoin virus 11924
Protocol: as §1
Le HIV1 est incubé 1 heure à 37° en présence d'AcN (D23, 621, N5-12), d'anticorps anti-NP (TNP11) ou en présence des dérivés NP (DNP-glycine et DNP-lysine). L'activité reverse transcriptase du HIV1 est testée immédiatement (cas des dérivés DNP-glycine et DNP-lysine). Alternativement, des lymphocytes humains sont infectés par le HIV1 préincubé avec les produits à tester, et la culture cellulaire est observée pendant 3 semaines par titrage de la reverse transcriptase. Durant cette période les cultures des lymphocytes humains ne contiennent pas d'anticorps ni d'antigène.

[7] = Vesicular stomatitis virus, L929

## TNP-BSA
[1]; 0,03 mg/ml
  % Inhibition: 0%
[1]; 0,5 mg/ml
  % Inhibition: 8%
[1]; 0,06 mg/ml
  % Inhibition: 0%
[1]; 0,12 mg/ml
  % Inhibition: 0%
[1]; 0,25 mg/ml
  % Inhibition: 0%
[1]; 1,0 mg/ml
  % Inhibition: 4%
[1]; 2,0 mg/ml
  % Inhibition: 14%
[2]; 0.5 mg/ml
  % Inhibition: 0%
[2]; 1mg/ml
  % Inhibition: 17%
[3]; 0,03 mg/ml
  % Inhibition: 0%
[3]; 0,5 mg/ml
  % Inhibition: 12%
[3]; 0,06 mg/ml
  % Inhibition: 0%
[3]; 0,12 mg/ml
  % Inhibition: 0%
[3]; 0,25 mg/ml
  % Inhibition: 0%
[3]; 1,0 mg/ml
  % Inhibition: 15%
[3]; 2,0 mg/ml
  % Inhibition: 24%
[4]; 0,3 mg/ml
  % Inhibition: 37%
[4]; 0,6 mg/ml
  % Inhibition: 51%
[4]; 0,07 mg/ml
  % Inhibition: 21%
[4]; 0,15 mg/ml
  % Inhibition: 31%
[4]; 1,2 mg/ml
  % Inhibition: 73%
[4]; 2,4 mg/ml
  % Inhibition: 72%
[5]; 0,03 mg/ml
  % Inhibition: 0%
[5]; 0,5 mg/ml
  % Inhibition: 55%
[5]; 0,06 mg/ml
  % Inhibition: 5%
[5]; 0,12 mg/ml
  % Inhibition: 16%
[5]; 0,25 mg/ml
  % Inhibition: 35%
[5]; 1,0 mg/ml
  % Inhibition: 79%

## O=C(O)CNc1ccc([N+](=O)[O-])cc1[N+](=O)[O-] [DNP-glycine, DNP-Glycine]
[1]; Cardiovirus A, L929, 24 h, read-out: séroneutralise jusqu'à une concentration de
  minimal effective concentration: 600 µg/mL
[1]; Cardiovirus A, L929, 0,03 mg/ml
  inhibition at 30 µg/mL: 0%
[1]; Cardiovirus A, L929, 0,3 mg/ml
  inhibition at 300 µg/mL: 32%
[1]; Cardiovirus A, L929, 0,6 mg/ml
  inhibition at 600 µg/mL: 62%
[1]; Cardiovirus A, L929, 0,07 mg/ml
  inhibition at 70 µg/mL: 0%
[1]; Cardiovirus A, L929, 0,15 mg/ml
  inhibition at 150 µg/mL: 20%
[1]; Cardiovirus A, L929, 1,2 mg/ml
  inhibition at 1200 µg/mL: 78%
[2]
  inhibition at 10 µg/mL: 10%
  inhibition at 30 µg/mL: 17%
  inhibition at 60 µg/mL: 34%
  inhibition at 120 µg/mL: 36%
  inhibition at 240 µg/mL: 54%
  inhibition at 480 µg/mL: 63%
[2]; ajouté à la culture cellulaire après l'infection virale
  inhibition du virus (result in words): peut inhiber le virus même s'il est ajouté à la culture cellulaire après l'infection virale
HIV1; 3 jours après l'infection, témoin virus 562
  activité reverse transcriptase (surnageants de culture): 1064
HIV1; 6 jours après l'infection, témoin virus 1274
  activité reverse transcriptase (surnageants de culture): 890
HIV1; 10 jours après l'infection, témoin virus 94474
  activité reverse transcriptase (surnageants de culture): 1234
HIV1; 13 jours après l'infection, témoin virus 63944
  activité reverse transcriptase (surnageants de culture): 1572
HIV1; 18 jours après l'infection, témoin virus 73368
  activité reverse transcriptase (surnageants de culture): 1276
HIV1; 20 jours après l'infection, témoin virus 26840
  activité reverse transcriptase (surnageants de culture): 1270
HIV1; lymphocytes incubés avec les produits
  activité reverse transcriptase / infectivité virale par rapport au témoin virus (result in words): peuvent conduire à une inhibition totale de l'infectivité virale
[3]; [7]
  inhibition at 30 µg/mL: 0%
  inhibition at 70 µg/mL: 0%
  inhibition at 150 µg/mL: 6%
  inhibition at 300 µg/mL: 38%
  inhibition at 600 µg/mL: 47%
  inhibition at 1200 µg/mL: 68%
  inhibition at 2400 µg/mL: 41%
[3]; Vesicular stomatitis virus, L929, 72 h, read-out: a un effet jusqu'à une concentration de
  minimal effective concentration: 1200 µg/mL
[5]; 0,3 mg/ml
  inhibition at 300 µg/mL: 48%
[5]; 0,6 mg/ml
  inhibition at 600 µg/mL: 50%
[5]; 0,07 mg/ml
  inhibition at 70 µg/mL: 28%
[5]; 0,15 mg/ml
  inhibition at 150 µg/mL: 40%
[5]; 1,2 mg/ml
  inhibition at 1200 µg/mL: 57%
[5]; 2,4 mg/ml
  inhibition at 2400 µg/mL: 92%
[5]; 48 h, lowest concentration stated as seroneutralising, virus HVE, read-out: peut séroneutraliser le virus jusqu'à une concentration de
  minimal effective concentration: 600 µg/mL
[6]; 10^-3M
  Activité reverse transcriptase: 5444
[6]; 10^-6M
  Activité reverse transcriptase: 3424
[6]; 10^-7M
  Activité reverse transcriptase: 4090
[6]; 10^-9M
  Activité reverse transcriptase: 3638
